Source: US20120004281A1, “RNA Interference Mediated Inhibition of the Nerve Growth Factor Beta Chain (NGFB) Gene Expression Using Short Interfering Nucleic Acid (siNA)” (Merck Sharp & Dohme Corp, priority 2009, published 2012)
[invAb] = inverted abasic unit; m = 2'-O-methyl; r = 2'-OH (RNA); f = 2'-fluoro

Tested on: NGFβ mRNA
Test: NGFβ mRNA knock-down in Calu-1 cells (RNAiMax transfection, Taqman RT-PCR)
Format: cell-based, human
Details: human Calu-1 cells, 10 nM siNA, 24 hrs post-transfection, relative to non-targeting control, normalized to GAPDH
Experimental: Calu-1 (human; ATCC cat# HTB-54): Cells were cultured at 37° C. in the presence of 5% CO2 and grown in McCoy's 5a medium supplemented with fetal bovine serum at a final concentration of 10% and 100 μg/mL of streptomycin and 100 U/mL penicillin.
All transfections were performed using RNAiMax (Invitrogen Cat# 13778-150) as per the manufacturer's instructions.
Cells were plated in all wells of a tissue-culture treated, 96-well plate at a final count of 5,000 cells/well in […], of appropriate culture media. Cells were cultured for 24 hours after plating at 37° C. in the presence of 5% CO2.
After 24 hours, complexes containing siNA and RNAiMax were created as follows: A solution of RNAiMax diluted 33-fold in OPTI-MEM was prepared. In parallel, solutions of the siNAs for testing were prepared to a final concentration of 120 nM in OPTI-MEM. After incubation of RNAiMax/OPTI-MEM solution at room temperature for 5 min, an equal volume of the siRNA solution and the RNAiMax solution were added together for each of the siNAs.
This solution was incubated at room temperature for 20 minutes. After incubation, 20 uL of the solution was added to each of the relevant wells.
The final concentration of siNA in each well was 10 nM and the final volume of RNAiMax in each well was 0.3u1.
The time of incubation with the RNAiMax-siNA complexes was 24 hours, unless otherwise indicated. There was no change in media between the transfection and harvesting of the cells unless otherwise indicated.
Dose response curves were carried out in a similar fashion in 96-well plates, while maintaining a constant amount of RNAiMax in each transfection.
RNA was extracted from a 96-well plate using the TaqMan® Gene Expression Cells-to-CT™ Kit (Cat# 4399002) with a modified protocol. Briefly, a 60 uL (1 plate) or 110 uL (2 plates) of the Lysis Solution with DNase I was dispensed into each well of the Lysis Buffer Plate (twin.tec full skirt plate). The lysis buffer and stop plates were stored at 4° C. until the cells were washed.
The plate was spun at 1100 rpm for 5 minutes. The culture medium was aspirated and discarded from the wells of the culture plate. The lysis was performed automatically using a BioMek FX instrument and method. After the Biomek method was completed, the lysis plate was incubated for 2 min. at room temperature. The lysis plate can be stored for 2 hours at 4° C., or at −20° C. or −80° C. for two months.
Each well of the reverse transcription plate required 10 uL of 2× reverse transcriptase Buffer, luL of 20× reverse transcription enzyme and 2 uL of nuclease-free water. The reverse transcription master mix was prepared by mixing 2× reverse transcription buffer, 20× reverse transcription enzyme mix, and nuclease-free water. 13 uL of the reverse transcription master mix was dispensed into each well of the reverse transcription plate (semi-skirted). A separate reverse transcription plate was prepared for each cell plate. The plate was loaded onto a Biomek NX or Biomek FX Dual-96 and the Biomek method was run. The program is programmed to automatically added 7 uL of lysate from the cell lysis procedure described above into each well of the reverse transcription plate. The plate is sealed and spun on a centrifuge (1000 rpm for 30 seconds) to settle the contents to the bottom of the reverse transcription plate. The plate is placed in a thermocycler at 37° C. for 60 min, 95° C. for 5 min, and 4° C. until the plate is removed from the thermocycler. Upon removal, if not used immediately, the plate was frozen at −20° C.
A series of probes and primers were used to detect the various mRNA transcripts of the genes of NGFβ, BDNF and GAPDH in human cell lines. All the Taqman probes and primers for the experiments here-in described were supplied as pre-validated sets by Applied Biosystems, Inc. (see Table 3). The assays were performed on an ABI 7900 instrument, according to the manufacturer's instructions. […]

Substance | % KD in CaLu-1 Cells [%]
25407-DC: siNA duplex, NGFβ target site 518; sense B cAcAGGAGcAAGcGGucAu TTB (SEQ ID NO: 39), antisense AUGAccGcuuGcuccuGuGUU (SEQ ID NO: 40) (sense CACAGGAGCAAGCGGUCAUTT; antisense AUGACCGCUUGCUCCUGUGUU; sense: DNA at AGT, 2'-fluoro at CU, [invAb] at 5' end, 3' end, backbone not given here; antisense: sugars from the 5' end rrrmffmfffmfffffmfmmm, backbone not given here) | 47
25414-DC: siNA duplex, NGFβ target site 615; sense B ccAcAGAcAucAAGGGcAA TTB (SEQ ID NO: 53), antisense UUGcccuuGAuGucuGuGGUU (SEQ ID NO: 54) (sense CCACAGACAUCAAGGGCAATT; antisense UUGCCCUUGAUGUCUGUGGUU; sense: DNA at AGT, 2'-fluoro at CU, [invAb] at 5' end, 3' end, backbone not given here; antisense: sugars from the 5' end rrrfffffmmfmfffmfmmmm, backbone not given here) | 61
25418-DC: siNA duplex, NGFβ target site 650; sense B GGAGAGGuGAAcAuuAAcA TTB (SEQ ID NO: 61), antisense UGUuAAuGuucAccucuccUU (SEQ ID NO: 62) (sense GGAGAGGUGAACAUUAACATT; antisense UGUUAAUGUUCACCUCUCCUU; sense: DNA at AGT, 2'-fluoro at CU, [invAb] at 5' end, 3' end, backbone not given here; antisense: sugars from the 5' end rrrfmmfmfffmfffffffmm, backbone not given here) | 26
25415-DC: siNA duplex, NGFβ target site 609; sense B ccAccGccAcAGAcAucAA TTB (SEQ ID NO: 55), antisense UUGAuGucuGuGGcGGuGGUU (SEQ ID NO: 56) (sense CCACCGCCACAGACAUCAATT; antisense UUGAUGUCUGUGGCGGUGGUU; sense: DNA at AGT, 2'-fluoro at CU, [invAb] at 5' end, 3' end, backbone not given here; antisense: sugars from the 5' end rrrmfmfffmfmmfmmfmmmm, backbone not given here) | 61
25405-DC: siNA duplex, NGFβ target site 124; sense B cAAGGGAGcAGcuuucuAu TTB (SEQ ID NO: 35), antisense AUAGAAAGcuGcucccuuGUU (SEQ ID NO: 36) (sense CAAGGGAGCAGCUUUCUAUTT; antisense AUAGAAAGCUGCUCCCUUGUU; sense: DNA at AGT, 2'-fluoro at CU, [invAb] at 5' end, 3' end, backbone not given here; antisense: sugars from the 5' end rrrmmmmmffmfffffffmmm, backbone not given here) | 31
25412-DC: siNA duplex, NGFβ target site 267; sense B cccAAGcccAcuGGAcuAA TTB (SEQ ID NO: 49), antisense UUAGuccAGuGGGcuuGGGUU (SEQ ID NO: 50) (sense CCCAAGCCCACUGGACUAATT; antisense UUAGUCCAGUGGGCUUGGGUU; sense: DNA at AGT, 2'-fluoro at CU, [invAb] at 5' end, 3' end, backbone not given here; antisense: sugars from the 5' end rrrmfffmmfmmmfffmmmmm, backbone not given here) | −3
